Values joined by “and” are separate entries in the source; they are usually repeats but may differ in a detail not shown here. Identical values can stand only once.
What was measured:
[1] = test system: BE-2 neuroblastoma cells; test: internalized 59Fe uptake from 59Fe-transferrin; format: cell-based; details: 59Fe-transferrin 0.75 μM, 3 h at 37° C., chelators 50 μM, DFO 100 μM, mean±SD
Protocol: (§1) The effect of chelators on ^59Fe uptake from ^59Fe-Tf and ^59Fe release from prelabelled cells was studied using standard procedures reported previously (Richardson et al., 1994, J. Lab Clin. Med. 124 660–71). The amount of ^59Fe internalized by the cells was measured by incubation with the general protease pronase (1 mg/ml) for 30 min at 4° C. to remove membrane-bound ^59Fe and Tf (Richardson et al., 1990; Baker et al., 1998, Biochim. Biophys. Acta 1380 21–30).
(§2) Table 2. The effect of DFO, 311, PCTH, PCBH, or PCBHH on internalized ^59Fe uptake from ^59Fe-transferrin by BE-2 neuroblastoma cells, SK-N-MC neuroepithelioma cells, and SK-Mel-28 melanoma cells. Cells were incubated with the chelators and ^59Fe-transferrin (0.75 μM) for 3 h at 37° C., washed, and incubated for 30 min at 4° C. with pronase (1 mg/ml) to separate the internalized from the membrane-bound ^59Fe. All chelators were screened at a concentration of 50 μM except for DFO which was examined at 100 μM. Results are mean±SD (three determinations) from a typical experiment.

[2] = test system: SK-Mel-28 melanoma cells; test: internalized 59Fe uptake from 59Fe-transferrin; format: cell-based, human; details: 59Fe-transferrin 0.75 μM, 3 h at 37° C., chelators 50 μM, DFO 100 μM, mean±SD
Protocol: as §1, §2

[3] = test system: SK-N-MC neuroepithelioma cells; test: internalized 59Fe uptake from 59Fe-transferrin; format: cell-based, human; details: for Internalised Iron Uptake (% Control) / 59Fe uptake from 59Fe-Tf, % of the control value (FIG. 2B): SK-N-MC, chelators 50 μM, DFO 100 μM; for Internalised Iron Uptake (% Control): 59Fe-transferrin 0.75 μM, 3 h at 37° C., mean±SD; for 59Fe uptake from 59Fe-Tf, % of the control value (FIG. 2B): 3 hrs at 37° C., FIG. 2B screening experiment
Protocol: as §2, with “The effect of chelators on ^59Fe uptake from ^59Fe-Tf and ^59Fe release from prelabelled cells was studied using standard procedures reported previously (Richardson et al., 1994, J. Lab Clin. Med. 124 660-71). The amount of ^59Fe internalized by the cells was measured by incubation with the general protease pronase (1 mg/ml) for 30 min at 4° C. to remove membrane-bound ^59Fe and Tf (Richardson et al., 1990; Baker et al., 1998, Biochim. Biophys. Acta 1380 21-30). […] To determine the ability of the chelators to inhibit ^59Fe uptake from ^59Fe-Tf (0.75 μM). […] Table” for “Table”, “[…],” for “PCTH, PCBH,”

[4] = test system: 59Fe-loaded reticulocytes; test: mobilisation of 59Fe from 59Fe-loaded reticulocytes (mitochondrial Fe overload model); format: cell-based, rabbit
Protocol: (§3) FIG. 7. The effect of reincubation time with the Fe chelators on ^59Fe mobilization from ^59Fe-loaded reticulocytes. The cells were labelled with ^59Fe-transferrin (3.75 μM) in the presence of the heme synthesis inhibitor, succinylacetone (1 mM), and incubated with the cells for 1 h at 37° C. The ^59Fe-labelled reticulocytes were then incubated with the chelators (200 μM) for 15–240 min at 37° C. The results are Mean±SD (3 determinations) in a typical experiment of three performed.
as §3, with “9.” for “7.”, “chelator concentration” for “reincubation time with the Fe chelators”, “(10–200” for “(200”
Reticulocytosis was induced by standard procedures (Richardson, D. R., Ponka, P and Vyoral, D (1996) Blood 87, 3477–3488) in New Zealand white rabbits by repeated phlebotomy by cardiac puncture using a protocol approved by the McGill University Animal Care Committee. Reticulocytes were identified based on staining with new methylene blue, and cell counts were determined using an improved Neubauer counting chamber.
Reticulocytes were obtained from chronically bled rabbits as described above and were incubated with 1 mM succinylacetone (SA: Sigma) to inhibit heme synthesis. After a 15 min preincubation in the presence of SA, ^59Fe-Tf ([…]) was added and incubated with the cells for 1 H at 37° C. with shaking. After this incubation the reticulocytes were washed three times with ice-cold PBS to remove non-specifically bound ^59Fe-Tf. The washed ^59Fe-labelled reticulocytes (30–35 μL) were incubated in buffered salt solution (250 μL final volume) with the apochelators. The SA was present in all incubations with the chelators to prevent the utilization of non-heme ^59Fe for heme synthesis. After the incubation, ^59Fe was measured both in washed reticulocytes and in the medium, and the percentage of ^59Fe mobilized from the reticulocytes was then calculated.

[5] = test system: neuroblastoma (NB); details: cited from earlier work
[6] = test system: SK-N-MC neuroepithelioma cells; test: 59Fe release from prelabelled cells (iron efflux); format: cell-based, human; details: chelators 0.5–50 μM, 'most effective' refers to concentrations up to 10 μM
[7] = test system: SK-N-MC neuroepithelioma cells; test: internalized 59Fe uptake from 59Fe-transferrin; format: cell-based, human; details: chelators 0.5–50 μM, 3 hr, 'most effective' refers to concentrations up to 10 μM

Row | Compound | Internalised Iron Uptake (% Control) [1] | Internalised Iron Uptake (% Control) [2] | 59Fe uptake from 59Fe-Tf, % of the control, range over all 3 cell lines ([3]; BE-2, SK-N-MC and SK-Mel-28 cell lines together, 3 hr, 50 μM, Table 2) | Internalised Iron Uptake (% Control) [3] | effect on mobilizing 59Fe from 59Fe-loaded reticulocytes at high concentrations ([4]; high concentrations up to 5 mM, activity similar to control medium) | 59Fe uptake from 59Fe-Tf, % of the control value (FIG. 2B) [3] | decrease in bone infiltration of tumor cells ([5]; 7 of 9 patients with neuroblastoma, 8 hr intravenous infusion) | decrease in tumor size ([5]; in 1 patient with neuroblastoma) | cellular 59Fe released from 59Fe-loaded reticulocytes, 1 h reincubation (FIG. 9) ([4]; chelator concentration 200 μM (range 10–200 μM), reincubated 1 h at 37° C., 3 determinations) | cellular 59Fe mobilized from 59Fe-loaded reticulocytes after 240 min ([4]; chelators 200 μM, 240 min of incubation, FIG. 7) | efficacy at mobilizing 59Fe as a function of chelator concentration (FIG. 3A) [6] | efficacy at preventing 59Fe uptake from 59Fe-Tf as a function of chelator concentration (FIG. 3B) [7]
1 | O=C(NN=Cc1c(O)ccc2ccccc12)c1ccncc1 [Chelator 311, 2-hydroxy-1-naphthylaldehyde isonicotinoyl hydrazone, reference compound] | 8 ± 1 % Control | 9 ± 1 % Control | 8–10 % of the control | 10 ± 4 % Control | – | – | – | – | – | – | – | –
2 | CC(=O)N(O)CCCCCNC(=O)CCC(=O)N(O)CCCCCNC(=O)CCC(=O)N(O)CCCCCN [DFO, desferrioxamine, reference compound] | 42 % Control and 42 ± 3 % Control | 98 % Control and 98 ± 7 % Control | – | 100 % Control and 100 ± 6 % Control | little effect | 91 % of the control | > 50% | 48% | – | – | – | –
3 | O=C(NN=Cc1ccco1)c1ccncc1 [FIH, 2furoylcarboxaldehyde isonicotinoyl hydrazone] | – | – | – | – | – | no effect | – | – | very low activity | 4% | – | –
4 | O=C(NN=Cc1ccccn1)c1ccccc1 [PCBH, 2-pyridylcarboxaldehyde benzoyl hydrazone] | 25 ± 4 % Control | 36 ± 6 % Control | – | 20 ± 2 % Control | – | – | – | – | – | – | – | –
5 | O=C(NN=Cc1ccccn1)c1cccs1 [PCTH, 2-pyridylcarboxaldehyde 2-thiophenecarboxyl hydrazone] | 25 ± 3 % Control | 38 ± 6 % Control | – | 16 ± 1 % Control | – | – | – | – | – | – | most effective chelators | most effective chelators

Reference: patent US6989397B1, “Iron chelators and uses thereof” (University of Queensland, priority 1999, dated 2006)
